From patent US20020183684A1, “Electroporation-enhanced inhibition of vascular neointimal hyperplasia” (GENETRONICS, priority 1996, published 2002)
“Also recorded” adds a separate entry of the source.

Assays:
porcine artery = conditions: cited from earlier work
[1] = test system: balloon injured rat carotid arteries (neointimal hyperplasia); experiment: Balloon injury of rat carotid arteries, local heparin delivery with or without electroporation, arterial morphometry at day 28; assay type: in vivo; conditions: for Active lumen area / Intimal wall thickness / Mean intimal area / Medial area / Intima/media thickness ratio: day 28, mean ± SEM; for Neointima formation (in words): 28 days
Method: Mature adult male Sprague-Dawley rats (Harlan, San Diego, Calif.) with an average body weight of 423.8±8.6 (SEM) gm were housed in individual cages in light-dark cycled, temperature-controlled rooms. Standard laboratory chow and water were available ad lib. After a minimum of 7 days acclimatization, the rats were anesthetized with an intramuscular injection of ketamine, 90 mg/kg (Phoenix, St. Joseph, Mo.) and xylazine, 15 mg/kg (Fermenta, Kansas City, Mo.). After anesthesia, they were strapped supine on a surgical table with body temperature maintained at 37° C. using a thermostatic blanket. The animals breathed spontaneously and Lead II electrocardiogram was monitored throughout the experiment. […] All procedures conformed to the guiding principles of the American Physiological Society and Institutional Animal Care and Use Committee (Department of Health and Human Services, National Institutes of Health).
Neointimal hyperplasia in rats was induced by a technique described earlier by Clowes et al. (A. W. Clowes and M. M. Clowes, supra). Briefly, the left and right common carotid arteries (CCA) were isolated through cervical incision. After isolation of the arteries, the left CCA at the thoracic entry point was temporarily clamped with a bulldog clip. The right CCA served as a control artery and was not surgically manipulated. The left CCA was catheterized through a proximal incision at the junction of the internal and external carotid arteries with a 2F Fogarty embolectomy catheter (Baxter Healthcare Corporation, Irvine, Calif.). The catheter was advanced to the distal CCA, inflated with 0.3 ml of ambient air for 30 sec each time, and retracted to the internal carotid-external carotid junction three times, with one rotation after each passage to ensure uniform injury of the arterial wall. The Fogarty catheter was then withdrawn and exchanged for a porous balloon electroporation (PBE) catheter.
The PBE catheter (manufactured by Danforth Biomedical, Santa Clara, Calif. as per design provided by Genetronics, Inc., San Diego, Calif.) is comprised of a 2F, triple-lumen shaft with a porous 1.5 cm long PET balloon at the distal end. Catheter lumens are used for passage of a 0.014″ guide wire for balloon inflation and deflation and as a conduit for the lead to the central electrode inside the balloon. The balloon has an inflated diameter of 1.4 mm, with four rows of 7 holes each (nominal hole size: 15-25 μm). The balloon serves as a reservoir for the heparin-containing composition. The central electrode inside the balloon is a coiled silver wire wrapped tightly and densely around the catheter shaft, over a length of approximately 10 mm. This balloon electrode acts as the cathode and the inserted guidewire as the anode. The distance between the distal end of the balloon electrode and the proximal end of the bare zone of the conductive guidewire was 4 mm (FIG. 9).
Following balloon catheter injury of the left CCA, rats were divided into three groups. Groupl received local intracarotid delivery of heparin (Elkins-Sinn, Cherry Hill, N.J.), but no electrical pulsing (positive untreated test: H+E−; H stands for heparin and E for electrical pulsing; + or − designate […] of H or E, respectively). Group 2 received a sequence of four electroporative pulses in the presence of heparin (positive treated test: H+E+). The uninjured right CCA of all animals comprised Group 3 which received neither drug nor electrical pulses and served as negative untreated control (H−E−).
Immediately following balloon injury of the vessel, a PBE catheter was introduced into the injured portion of the left CCA after placement of a temporary clip at the distal end of the balloon injured segment. Heparin (200 IU in 0.1 ml) (Elkins-Sinn) was delivered through the balloon pores into the arterial wall over a period of approx. 20 seconds. […]

porcine carotid artery = conditions: pig, in vivo; cited from earlier work
[2] = Group 2 H+E+ Inj+, with electroporation

## heparin
Porcine artery; approximately 1 hour after iontophoretic delivery
  Fraction of drug washed out: 96%
Porcine artery; heparin 1000 U to 20,000 U/ml
  Concentration remaining in the vessel, IO versus passive delivery: greater concentrations remaining in the vessel
Porcine artery; heparin 1000 U/ml, coronary angiography, blood pressure, cardiac rhythm
  Safety of iontophoretic delivery: safe and well tolerated
Porcine artery; pig balloon injury model, following IO delivery
  Platelet deposition: reduced
[1]; Group 1 H+E− Inj+, no pulsing
  Active lumen area: 0.295 sq. mm
  Intimal wall thickness: 541 μm
  Mean intimal area: 0.778 sq. mm
  Medial area: 0.254 sq. mm
[1]; Group 1 H+E− Inj+: heparin 200 IU local, no electrical pulsing
  Intima/media thickness ratio: 2.96
[1]; [2]
  Active lumen area: 0.902 sq. mm
  Intimal wall thickness: 26.10 μm
  Mean intimal area: 0.067 sq. mm
  Medial area: 0.338 sq. mm
[1]; Group 2 H+E+ Inj+: heparin 200 IU local plus 4 pulses 100 V 20 ms
  Intima/media thickness ratio: 0.25
[1]; H+E+ group
  Slope of linear regression, active lumen area versus IEL area: 0.57
[1]; H+E+: heparinized, electroporated balloon injured arteries, versus H+E−
  Neointima formation (in words): significant reduction in the volume of neointima; also recorded: vastly reduced neointimal thickness; also recorded: strong reduction in the formation of neointimal volume
[1]; H+E− group
  Slope of linear regression, active lumen area versus IEL area: 0.17
[1]; H+E−: heparinized, non-electroporated balloon injured arteries
  Neointima formation (in words): marked proliferation of neointima; also recorded: pronounced neointima formation
[1]; all groups
  Pre-sacrificial electrocardiogram (Lead II): did not reveal any rhythm abnormality
[1]; electroporation-enhanced delivery of heparin
  Period of inhibition of neointimal growth and favorable remodeling: at least 28 days
[1]; rats, behavior and weight
  Tolerability of surgery and arterial electroporation: tolerated the surgery and arterial electroporation well

## hirudin
Porcine carotid artery
  Fraction of drug washed out: 80%
  Level in the artery: the same as for passive delivery
